Measurements as given in ChEMBL document CHEMBL5543121, “Drug Repurposing of ACT001 to Discover Novel Promising Sulfide Prodrugs with Improved Safety and Potent Activity for Neutrophil-Mediated Antifungal Immunotherapy” (J Med Chem, 2024).
Activity calls are given as the source filed them. The calls are words filed in the database; no cut-off is given here.

What was measured:
Candida albicans [1] = experiment: Induction of neutrophil-mediated antifungal immunity against Candida albicans SC5314 infected in mouse assessed as reduction in PD-L1 positive Ly6G positive neutrophils in bone marrow at 50 to 100 mg/kg, po administered once a day for 3 days by flow cytometry analysis; assay type: functional, organism-based; details: dose 50-100 mg/kg, time 3.0 day
[2] = Acute toxicity in C57BL/6 mouse assessed as effect on AST level in serum at 500 mg/kg, po administered as single dose and measured every day for 14 days; assay type: organism-based; details: in vivo, 336 h, time 14 day
Neutrophil [3] = experiment: Downregulation of phosphorylated STAT3 protein level at Ser727 residue in curdlan induced mouse bone marrow neutrophils at 40 uM measured upto 60 mins by Western blot analysis; assay type: functional, cell-based
[4] = AUC (0 to infinity) in male Sprague-Dawley rat at 10 mg/kg, po by LC-MS/MS analysis; assay type: ADME, organism-based; details: in vivo
[5] = Subacute toxicity in C57BL/6 mouse assessed as change in liver weight at 100 mg/kg, po administered daily for 14 days; assay type: organism-based; details: in vivo, 336 h, time 14 day
[6] = AUC (0 to t) in male Sprague-Dawley rat at 2 mg/kg, iv by LC-MS/MS analysis; assay type: ADME, organism-based; details: in vivo
[7] = Subacute toxicity in C57BL/6 mouse assessed as signs of morbidity at 100 mg/kg, po administered daily for 14 days and measured every day; assay type: organism-based; details: in vivo, 336 h, time 14 day
[8] = Acute toxicity in C57BL/6 mouse assessed as histopathological changes in liver at 500 mg/kg, po administered as single dose and measured after 14 days; assay type: organism-based; details: in vivo, 336 h, time 14 day
[9] = Acute toxicity in C57BL/6 mouse assessed as histopathological changes in lung at 500 mg/kg, po administered as single dose and measured after 14 days; assay type: organism-based; details: in vivo, 336 h, time 14 day
[10] = Acute toxicity in C57BL/6 mouse assessed as change in kidney weight at 500 mg/kg, po administered as single dose and measured after 14 days; assay type: organism-based; details: in vivo, 336 h, time 14 day
[11] = Therapeutic index, ratio of IC50 for cytotoxicity against mouse neutrophils to IC50 for inhibition of fungal curdlan induced PD-L1 expression in mouse neutrophils; assay type: toxicity; details: read-out: Ratio IC50
Neutrophil [12] = experiment: Effect on STAT3 protein level in curdlan induced mouse bone marrow neutrophils at 40 uM measured upto 60 mins by Western blot analysis; assay type: functional, cell-based
[13] = Acute toxicity in C57BL/6 mouse assessed as change in spleen weight at 500 mg/kg, po administered as single dose and measured after 14 days; assay type: organism-based; details: in vivo, 336 h, time 14 day
[14] = Acute toxicity in C57BL/6 mouse assessed as signs of morbidity at 500 mg/kg, po administered as single dose and measured every day for 14 days; assay type: organism-based; details: in vivo, 336 h, time 14 day
[15] = Subacute toxicity in C57BL/6 mouse assessed as effect on creatinine level in serum at 100 mg/kg, po administered daily for 14 days and measured every day; assay type: organism-based; details: in vivo, 336 h, time 14 day
[16] = Subacute toxicity in C57BL/6 mouse assessed as change in lung weight at 100 mg/kg, po administered daily for 14 days; assay type: organism-based; details: in vivo, 336 h, time 14 day
[17] = Subacute toxicity in C57BL/6 mouse assessed as animal death at 100 mg/kg, po administered daily for 14 days and measured every day; assay type: organism-based; details: in vivo, 336 h, time 14 day
[18] = Cmax in male Sprague-Dawley rat at 10 mg/kg, po by LC-MS/MS analysis; assay type: ADME, organism-based; details: in vivo
[19] = Subacute toxicity in C57BL/6 mouse assessed as histopathological changes in liver at 100 mg/kg, po administered daily for 14 days; assay type: organism-based; details: in vivo, 336 h, time 14 day
Candida albicans [20] = experiment: Antifungal activity against candida albicans SC5314 infected in mouse assessed as reduction in fungal burden in kidney at 200 mg/kg, po administered on day 1 and 3; assay type: functional, organism-based; details: time 1-3 day
[21] = Acute toxicity in C57BL/6 mouse assessed as effect on urea level in serum at 500 mg/kg, po administered as single dose and measured every day for 14 days; assay type: organism-based; details: in vivo, 336 h, time 14 day
Candida albicans [22] = experiment: Induction of neutrophil-mediated antifungal immunity against Candida albicans SC5314 infected in cyclophosphamide-induced immunosuppressed C57BL/6 mouse at 50 to 100 mg/kg, po pretreated with CTX for 3 days followed by fungal infection and further administered with compound once a day for 3 days; assay type: functional, organism-based; details: dose 50-100 mg/kg, time 3.0 day
Candida albicans [23] = experiment: Induction of neutrophil-mediated antifungal immunity against Candida albicans SC5314 infected in mouse assessed as increase in animal survival rate at 50 to 100 mg/kg, po administered once a day for 3 days; assay type: functional, organism-based; details: dose 50-100 mg/kg, time 3.0 day
Candida albicans [24] = experiment: Induction of neutrophil-mediated antifungal immunity against Candida albicans SC5314 infected in mouse assessed as reduction in fungal burden in kidneys at 50 to 100 mg/kg, po administered once a day for 3 days; assay type: functional, organism-based; details: dose 50-100 mg/kg, time 3.0 day
Candida albicans [25] = experiment: Antifungal activity against candida albicans SC5314 infected in mouse assessed as reduction in PD-L1 positive Ly6G-positive neutrophils in kidney at 200 mg/kg, po administered on day 1 and 3; assay type: functional, organism-based; details: time 1-3 day
[26] = Acute toxicity in C57BL/6 mouse assessed as histopathological changes in kidney at 500 mg/kg, po administered as single dose and measured after 14 days; assay type: organism-based; details: in vivo, 336 h, time 14 day
[27] = Acute toxicity in C57BL/6 mouse assessed as effect on ALT level in serum at 500 mg/kg, po administered as single dose and measured every day for 14 days; assay type: organism-based; details: in vivo, 336 h, time 14 day
[28] = Subacute toxicity in C57BL/6 mouse assessed as histopathological changes in heart at 100 mg/kg, po administered daily for 14 days; assay type: organism-based; details: in vivo, 336 h, time 14 day
Neutrophil [29] = experiment: Induction of apoptosis in mouse neutrophils assessed as early apoptotic cells at 20 uM incubated for 16 hrs by Annexin V-FITC/PI staining based flow cytometry analysis (reference value: 26.9%); assay type: toxicity, cell-based
Neutrophil [30] = experiment: Potency index, ratio of ACT001 IC50 to test compound IC50 for inhibition of fungal curdlan induced PD-L1 expression in mouse neutrophils assessed as reduction in PD-L1 positive Ly6G positive neutrophils incubated for 16 hrs by flow cytometry analysis; assay type: functional
[31] = Clearance in male Sprague-Dawley rat at 2 mg/kg, iv by LC-MS/MS analysis; assay type: ADME, organism-based; details: in vivo
[32] = Subacute toxicity in C57BL/6 mouse assessed as body weight loss at 100 mg/kg, po administered daily for 14 days and measured every day; assay type: organism-based; details: in vivo, 336 h, time 14 day
[33] = target: Signal transducer and activator of transcription 3 (Homo sapiens, UniProt P40763); experiment: Binding affinity to His-tagged human recombinant STAT3 assessed as dissociation constant by MST assay
[34] = AUC (0 to t) in male Sprague-Dawley rat at 10 mg/kg, po by LC-MS/MS analysis; assay type: ADME, organism-based; details: in vivo
[35] = Inhibition of fungal curdlan induced PD-L1 expression in mouse neutrophils at 40 uM relative to control; assay type: functional, Neutrophil; details: Mus musculus, Neutrophil
[36] = Induction of apoptosis in mouse neutrophils assessed as live cells at 40 uM incubated for 16 hrs by Annexin V-FITC/PI staining based flow cytometry analysis (reference value: 46.6%); assay type: toxicity, cell-based, Neutrophil; details: read-out: Activity
Candida albicans [37] = experiment: Induction of neutrophil-mediated antifungal immunity against Candida albicans SC5314 infected in mouse assessed as reduction in fungal clusters in kidney at 50 to 100 mg/kg, po administered once a day for 3 days by PAS staining based analysis; assay type: functional, organism-based; details: dose 50-100 mg/kg, time 3.0 day

Signal transducer and activator of transcription 3, sequence (P40763 whole entry): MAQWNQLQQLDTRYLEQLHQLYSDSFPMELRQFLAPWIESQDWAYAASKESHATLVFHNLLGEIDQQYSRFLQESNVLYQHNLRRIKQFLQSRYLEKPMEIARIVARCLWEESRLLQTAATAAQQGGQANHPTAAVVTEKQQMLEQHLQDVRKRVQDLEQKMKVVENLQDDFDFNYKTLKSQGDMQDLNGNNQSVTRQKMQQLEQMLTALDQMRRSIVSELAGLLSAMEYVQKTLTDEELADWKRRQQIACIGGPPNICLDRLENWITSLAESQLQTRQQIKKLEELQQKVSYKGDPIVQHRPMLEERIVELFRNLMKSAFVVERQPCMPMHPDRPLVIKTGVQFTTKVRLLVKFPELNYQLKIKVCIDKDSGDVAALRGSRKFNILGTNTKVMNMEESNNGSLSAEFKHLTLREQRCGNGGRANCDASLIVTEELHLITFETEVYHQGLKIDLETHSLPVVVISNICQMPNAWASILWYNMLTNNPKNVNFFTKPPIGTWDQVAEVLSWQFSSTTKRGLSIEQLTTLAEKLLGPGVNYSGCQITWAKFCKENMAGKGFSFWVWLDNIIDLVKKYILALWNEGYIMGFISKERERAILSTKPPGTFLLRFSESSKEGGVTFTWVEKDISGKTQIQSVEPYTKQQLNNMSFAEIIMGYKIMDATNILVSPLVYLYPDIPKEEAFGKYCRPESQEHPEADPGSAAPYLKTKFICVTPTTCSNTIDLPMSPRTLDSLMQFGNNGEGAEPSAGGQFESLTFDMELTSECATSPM

C[C@@]1(O)CC[C@]23O[C@@]2(C)CC[C@@H]2[C@H](OC(=O)[C@H]2CS(=O)(=O)c2c(Cl)cccc2Cl)[C@@H]13
Activity (Candida albicans [1]): Active
Activity [2]: Non-Toxic
Activity (Neutrophil [3]): Active
AUC(0-inf) [4]: 182 ng·h/mL
Activity [5]: Non-Toxic
AUC(0-t) [6]: 73.9 ng·h/mL
Activity [7]: Non-Toxic
Activity [8]: Non-Toxic
Activity [9]: Non-Toxic
Activity [10]: Non-Toxic
selectivity ratio [11]: > 85.1
Activity (Neutrophil [12]): inactive
Activity [13]: Non-Toxic
Activity [14]: Non-Toxic
Activity [15]: Non-Toxic
Activity [16]: Non-Toxic
Activity [17]: Non-Toxic
Cmax [18]: 114 ng/mL
Activity [19]: Non-Toxic
Activity (Candida albicans [20]): Active
Activity [21]: Non-Toxic
Activity (Candida albicans [22]): inactive
Activity (Candida albicans [23]): Active
Activity (Candida albicans [24]): Active
Activity (Candida albicans [25]): Active
Activity [26]: Non-Toxic
Activity [27]: Non-Toxic
Activity [28]: Non-Toxic
Activity (Neutrophil [29]): 29.3%
Ratio IC50 (Neutrophil [30]): 4.46
clearance [31]: 453 mL/min/kg
Activity [32]: Non-Toxic
Kd [33]: 90.5 nM
AUC(0-t) [34]: 167 ng·h/mL
inhibition at 40 µM [35]: 80.2%
viability at 16 h, 40 µM [36]: 38%
Activity (Candida albicans [37]): Active
